Patent publication US20100137300A1, “Indolizine Acetic Acid Derivatives as CRTH2 Antagonists” (priority 2007, published 2010)

Target: T1, CRTH2 receptor (Homo sapiens, UniProt Q9Y5Y4)
T1 construct: expressed in transfected cells; host or cells: Human embryonic kidney (HEK) cells, membranes
T1 sequence (Q9Y5Y4 1-395): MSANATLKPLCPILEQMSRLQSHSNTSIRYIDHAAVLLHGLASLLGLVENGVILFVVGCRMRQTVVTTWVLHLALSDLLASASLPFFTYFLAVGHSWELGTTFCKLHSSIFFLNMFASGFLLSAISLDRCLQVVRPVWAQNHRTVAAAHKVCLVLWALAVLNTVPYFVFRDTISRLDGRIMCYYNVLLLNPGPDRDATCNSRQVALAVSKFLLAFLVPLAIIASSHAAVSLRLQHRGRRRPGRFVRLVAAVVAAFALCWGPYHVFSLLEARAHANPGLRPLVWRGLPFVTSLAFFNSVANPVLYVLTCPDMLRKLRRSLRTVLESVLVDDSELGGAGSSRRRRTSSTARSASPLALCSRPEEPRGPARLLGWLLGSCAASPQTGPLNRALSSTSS
Assay: CRTH2 radioligand binding assay ([3H]-PGD2 displacement)
Settings: HEK cell membranes expressing the CRTH2 receptor, 1 nM [3H]-PGD2
Description: The receptor binding assay is performed in a final volume of 200 μL binding buffer [10 mM BES (pH 7.4), 1 mM EDTA, 10 mM manganese chloride, 0.01% BSA] and 1 nM [^3H]-PGD2 (Amersham Biosciences UK Ltd). Ligands are added in assay buffer containing a constant amount of DMSO (1% by volume). Total binding is determined using 1% by volume of DMSO in assay buffer and non-specific binding is determined using 10 μM of unlabeled PGD2 (Sigma). Human embryonic kidney (HEK) cell membranes (3.5 μg) expressing the CRTH2 receptor are incubated with 1.5 mg wheatgerm agglutinin SPA beads and 1 nM [^3H]-PGD2 (Amersham Biosciences UK Ltd) and the mixture incubated for 3 hours at room temperature. Bound [^3H]-PGD2 is detected using a Microbeta TRILUX liquid scintillation counter (Perkin Elmer). Compound IC50 value is determined using a 6-point dose response curve in duplicate with a semi-log compound dilution series. IC50 calculations are performed using Excel and XLfit (Microsoft), and this value is used to determine a Ki value for the test compound using the Cheng-Prusoff equation.

An IC50 of 58 nM was found for `Cc1c(Cc2ccc(S(=O)(=O)N3CCOCC3)cc2)c2cc(C#N)ccn2c1CC(=O)O` [Example 1, {7-cyano-2-methyl-1-[4-(morpholine-4-sulfonyl)benzyl]indolizin-3-yl}acetic acid] in this work.
An IC50 of 19 nM was found for `Cc1c(Cc2ccc3cc(F)ccc3n2)c2cc(C#N)ccn2c1CC(=O)O` [Example 6, [7-cyano-1-(6-fluoroquinolin-2-ylmethyl)-2-methylindolizin-3-yl]acetic acid] in this work.
